The text below walks through data of PubChem BioAssay AID1159565 (GlaxoSmithKline (GSK), 2015).

pIC50: −log10 of the molar value. Active and inactive are the calls of the source. The rule behind the calls is not given here.

The experiment concerns T. cruzi-infected H9C2 cardiomyocytes, high-content imaging. Briefly: anti-T. cruzi activity in infected cardiomyocytes – imaging, H9C2 host cardiomyocytes, host toxicity (AID 1159565).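 Note: infected cells incubated 72 h after plating.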
Where [1] appears, read: measured here: H9C2 host cell toxicity.
The mark [2] stands for this setting: measured here: amastigotes per cell.

As for `COc1cccc(-c2c(C)nn(-c3nc(N)nc(-c4ccccn4)n3)c2N)c1`, the negative logarithm of the IC50 (pIC50) is 5.70. Moreover, the pIC50 under setting [1] was less than 4.30. Under setting [2], this compound showed a pIC50 of 6.30.
For `COc1cc2c(cc1OC)[C@H]1[C@@H](C)c3ccc(OC)c(OC)c3CN1CC2`, the IC50 was > 50000 nM (inactive). The pIC50 under setting [1] is less than 4.30. Under setting [2], this compound showed a pIC50 of 4.70.
Take `Cn1nccc1-c1cc(OC(CN)c2ccccc2)cnc1-c1ccco1` (centres undefined): the pIC50 is 7.00. The pIC50 under setting [1] is less than 4.30. Under setting [2], this compound showed a pIC50 of 7.00.
Consider `c1ccc(CNc2cccc3ccncc23)cc1`, for which the pIC50 is 5.20. Also, the pIC50 under setting [1] was less than 4.30. This compound gave a pIC50 under setting [2] of 5.30.
Regarding `COc1cc(OC)cc(C(=O)N[C@@H](CC(C)C)C(=O)NC2(C#N)CC2)c1`, the IC50 is > 50000 nM (inactive). Also, under setting [1], the pIC50 was less than 4.30. The compound further showed a pIC50 under setting [2] of less than 4.30.
For `Cc1ccc(Nc2nc(-c3ccccn3)cc(N3CCCC(O)C3)n2)cc1` (centres undefined), the pIC50 is 5.20. The compound further showed a pIC50 under setting [1] of 6.30. This compound had a pIC50 under setting [2] of 5.60.
Turning to `CC(C(=O)Nc1ccccc1F)N(C)CC(=O)Nc1cccc2ccccc12` (centres undefined), the pIC50 was 6.30. The pIC50 under setting [1] is less than 4.30. This compound showed a pIC50 under setting [2] of 6.49.
In the case of `O=C(CCCNC(=O)c1ccc(Cl)cc1)Nc1nc(-c2ccccn2)cs1`, the pIC50 is 4.60. Under setting [1], the pIC50 was 4.60. The pIC50 under setting [2] was 5.00.
As to `Cc1cc(NC(=O)C2CCCCC2)n(-c2nc3c(c(=O)[nH]2)CCC3)n1`, the pIC50 was 6.30. In addition, under setting [1], the pIC50 was 5.70. In addition, under setting [2], the pIC50 was 6.80.
Take `CCN(Cc1cccs1)C(=O)CSc1nnc(-c2ccc3c(c2)OCO3)o1`: the pIC50 is 5.60. Further, the pIC50 under setting [1] was less than 4.30. The same compound showed a negative logarithm of the IC50 (pIC50) under setting [2] of 5.80.
On to `N#Cc1c(Oc2cccc(Cl)c2)cccc1[N+](=O)[O-]`, for which the pIC50 was 6.20. Also, the pIC50 under setting [1] is 4.80. Further, under setting [2], the pIC50 is 6.89.
As for `NC(=O)c1cc(F)ccc1Nc1nc(NC2CCC(O)CC2)ncc1Br` (centres undefined), the pIC50 is 5.70. The same compound had a pIC50 under setting [1] of 6.30. Under setting [2], this compound showed a pIC50 of 6.10.
Turning to `c1ccc2sc(Nc3nc4ncccc4[nH]3)nc2c1`, the pIC50 is 5.80. In addition, the pIC50 under setting [1] was 6.00. For the same compound, under setting [2], the pIC50 was 5.89.
With `Cc1nc2c(-c3n[nH]c(-c4ccccc4N)n3)cccn2c1C`, the pIC50 was 5.60. The same compound had a pIC50 under setting [1] of 5.30. Under setting [2], the pIC50 is 5.80.
Regarding `Cc1cc(C)n(-c2nc(NC(C)C)nc(NC(C)(C)C)n2)n1`, the pIC50 is 5.80. The compound also had a pIC50 under setting [1] of 6.70. Under setting [2], this compound gave a pIC50 of 6.30.
Regarding `C[C@@H](Oc1cc(-n2cnc3ccc(CC(O)CO)cc32)sc1C(N)=O)c1ccccc1Cl` (some centres undefined), the pIC50 was 4.30. The pIC50 under setting [1] was 6.89. Moreover, the pIC50 under setting [2] is 4.89.
Turning to `COc1ccc(-c2cc(C)no2)cc1S(=O)(=O)Nc1ccc(F)c(Cl)c1`, the pIC50 was 5.49. This compound also gave a pIC50 under setting [1] of 4.30. This compound showed a pIC50 under setting [2] of 5.40.
As to `CC(=O)Nc1nc(-c2cc(C)ccc2C)c(C)s1`, the pIC50 is 6.70. Under setting [1], the pIC50 was less than 4.30. Under setting [2], this compound gave a pIC50 of 6.80.
On the same counts, the results for `O=C(NCc1nnc2n1CCCCC2)c1csc(-c2ccccc2)n1` are 5.70, less than 4.30 and 5.70.
Regarding `COc1ccc2nccc(NC(=O)C3(OC)CCN(CC(O)c4ccc5c(c4)OCCO5)CC3)c2n1` (centres undefined), the pIC50 is 6.49. Under setting [1], this compound gave a pIC50 of 4.80. Further, the pIC50 under setting [2] is 6.89.
Regarding `COc1cc(-c2noc(CC#N)n2)ccc1OC(F)F`, the pIC50 is 4.40. Moreover, the pIC50 under setting [1] is 4.49. In addition, the pIC50 under setting [2] is 4.60.
For the compound `COc1ccc(OC)c2c(=O)c(Cc3ccccc3)c(C)[nH]c12`, the negative logarithm of the IC50 (pIC50) is 6.30. Moreover, the pIC50 under setting [1] was less than 4.30. This compound had a pIC50 under setting [2] of 6.89.
For `CCc1nn(-c2ncc(F)c(NC(C)C)n2)c(N)c1C1CCCCC1`, the pIC50 was 5.49. The compound further had a pIC50 under setting [1] of 6.00. The compound further showed a pIC50 under setting [2] of 5.80.
Take `COc1cc(NC(=O)Nc2cccc(CNC(=O)OC3CCCCC3)c2)ccc1-c1cnco1`: the pIC50 was 4.60. Under setting [1], this compound gave a negative logarithm of the IC50 (pIC50) of 4.80. Moreover, under setting [2], the pIC50 was 4.49.
In the case of `Cc1ccc(C)c(OC2CCN(C(=O)C(C)n3ccnc3)CC2)c1` (centres undefined), the pIC50 was 6.40. In addition, under setting [1], the pIC50 was less than 4.30. Under setting [2], this compound had a pIC50 of 6.49.
Consider `COc1cccc2sc(CN(C)C(=O)C3CNCCN3c3ccc(F)cc3)c(C)c12` (centres undefined), for which the pIC50 is 6.70. In addition, under setting [1], the pIC50 was 5.10. The same compound showed a pIC50 under setting [2] of 6.80.
As for `CC1(Oc2cncc(Cl)c2)CCN(Cc2cc3ccccc3[nH]2)C1` (centres undefined), the negative-log IC50 (pIC50) is 5.80. Further, the pIC50 under setting [1] was 5.00. Also, the pIC50 under setting [2] was 6.00.
For `O=C(CSc1ccc(F)cc1)N[C@@H](Cc1cnc[nH]1)C(=O)NCCc1ccccc1`, in that order: 6.30, less than 4.30 and 6.30.
